Data: US20220127263A1, “Novel Compounds for the Treatment, Alleviation or Prevention of Disorders Associated with Tau Aggregates” (AC Immune SA, priority 2019, published 2022)
Read-outs that look alike come from different tables or passages of the source.

Key:
[1] = target: T1, Tau K18 aggregates (Tau K18 fragment, amino acids 244 to 372 of human Tau441) (Homo sapiens, UniProt P10636); experiment: Tau K18 disaggregation assay by ThT; type: biochemical; conditions: 2 μM K18 aggregates, 160 to 0.04 μM compound, 30 min RT, ThT fluorescence
T1 construct: encompassing amino acids 244 to 372 of the longest isoform (2N4R) of human Tau441; host or cells: bacteria
Method: Tau K18 Disaggregation Assay by ThT
The Tau K18 fragment, encompassing amino acids 244 to 372 of the longest isoform (2N4R) of human Tau441, was expressed in bacteria and purified or bought from SignalChem. For the K18 disaggregation assay by ThT, 35 μM of recombinant K18 in PBS were aggregated for 24 hours at 37° C. in presence of 50 μM of heparin (Sigma-Aldrich) and 10 mM of DTT (Sigma-Aldrich) under shaking at 750 RPM. Compounds were dissolved in anhydrous dimethyl sulfoxide (DMSO, Sigma-Aldrich) to reach a concentration of 10 mM. K18 aggregates and serial dilutions of compounds were mixed together in PBS (volume 50 μL) to a final concentration of 2 μM of K18 aggregates and from 160 to 0.04 μM of compounds. The mixture was incubated for 30 minutes at room temperature (RT), then 40 μL of this mixture were transferred into a black 384-well plate assay (Perkin-Elmer) and mixed with 10 μL of 100 μM ThT in 250 mM glycine (both from Sigma-Aldrich) in PBS. Fluorescence (relative fluorescence units; RFU) was measured in monoplicate or duplicate on a Tecan reader (excitation: 440 nm; emission: 485 nm). Percentage of K18 disaggregation was then calculated and half maximal effective concentration (EC50) was determined using GraphPad Prism version 5 (GraphPad Software) assuming a one-binding site fitting model.

[2] = CSF/Plasma ratio determination, in-vivo pharmacokinetics mouse p.o.; set-up: species or system CD-1 male mice; conditions: for CSF/plasma AUC ratio / AUC(0-t): male, CD-1, po; for AUC(0-t): plasma, read-out: Plasma AUC0-last
Method: CSF/Plasma Ratio Determination
Test compounds were administered to CD-1 male mice as a single oral dose of 10 or 20 mg/kg of a homogenous suspension (10 mL/kg, 1 or 2 mg/mL in 0.5% CMC (w/v) in water) by gavage using a plastic syringe fitted with a metal gavage tube. Terminal blood, brain and CSF samples were collected from three animals at several time points, typically at 2, 4, 8 and 24 h post-dose.
Blood samples were transferred into 1.5-mL plastic tubes containing K2-EDTA (0.5M, 3 uL) as an anti-coagulant and placed on wet ice, and were then processed to obtain plasma by centrifugation at approximately 5° C. (3000 g, 15 min) within 30 min after collection. An aliquot of 10 μL sample was protein precipitated with 150 μL IS, the mixture was vortex-mixed well and centrifuged at 13000 rpm for 10 min, 4° C. 30 μL supernatant was then mixed with 30 μL water, vortex-mixed well and centrifuged at 4° C. 2 μL sample was injected for LC-MS/MS analysis.
The collected CSF was transferred to polypropylene microcentrifuge tubes. CSF samples were added with an equal volume of plasma. An aliquot of 6 μL sample was protein precipitated with 90 μL IS, the mixture was vortex-mixed well and centrifuged at 13000 rpm for 10 min, 4° C. 30 μL supernatant was then mixed with 30 μL water, vortex-mixed well and centrifuged at 4° C. 2 μL sample was injected for LC-MS/MS analysis.
Test substance concentration in plasma and CSF versus time data were analyzed by non-compartmental approaches; AUC0-last in plasma and CSF were calculated with the log-linear trapezoidal rule. CSF/Plasma ratio was calculated as follows:
AUC0-last(CSF)/AUC0-last(plasma)

[3] = target: T2, full-length Tau (flTau, 2N4R) aggregates (Homo sapiens, UniProt P10636); experiment: Tau disaggregation assay by DLS (dynamic light scattering); type: biochemical; conditions: 2 μM flTau aggregates, 20 μM compound, 60 min RT
T2 construct: 35 μM of recombinant full-length (fl)Tau in PBS were aggregated; made in house; host or cells: bacteria
Method: Tau disaggregation assay by DLS (dynamic light scattering)
The longest isoform of human Tau (2N4R; 441 amino acids) was expressed in bacteria. For the Tau disaggregation assay by DLS, 35 μM of recombinant full-length (fl)Tau in PBS were aggregated for 24 h at 37° C. in presence of 50 μM of heparin (Sigma-Aldrich) and 10 mM of DTT (Sigma-Aldrich) under shaking at 750 RPM. Morphomers™ were dissolved in DMSO (Sigma-Aldrich) to reach a concentration of 10 mM. flTau aggregates and compounds were mixed together in PBS (volume 80 μL) to a final concentration of 2 μM of flTau aggregates and 20 μM of Morphomers™. The mixture was incubated for 60 min at RT. Then […] of solution was transferred into a 40 μl cuvette (Malvern) and the size of flTau aggregates was measured with a Zetasizer Nano (Malvern) at an angle of 173° with 3 runs of 5 times 15 sec each. Number of events were taken into consideration to assess size of flTau aggregates. Percentage of disaggregation was then measured using the dynamic range between flTau monomers and flTau aggregates.

[4] = 20 mg/kg, AUC0-last(CSF)/AUC0-last(plasma)

T1 sequence (P10636 561-689): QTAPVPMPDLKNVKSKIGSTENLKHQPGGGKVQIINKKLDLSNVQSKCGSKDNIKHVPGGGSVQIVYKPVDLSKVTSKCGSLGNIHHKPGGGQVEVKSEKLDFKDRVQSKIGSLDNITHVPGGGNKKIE
T2 sequence (P10636 1-441 isoform P10636-8): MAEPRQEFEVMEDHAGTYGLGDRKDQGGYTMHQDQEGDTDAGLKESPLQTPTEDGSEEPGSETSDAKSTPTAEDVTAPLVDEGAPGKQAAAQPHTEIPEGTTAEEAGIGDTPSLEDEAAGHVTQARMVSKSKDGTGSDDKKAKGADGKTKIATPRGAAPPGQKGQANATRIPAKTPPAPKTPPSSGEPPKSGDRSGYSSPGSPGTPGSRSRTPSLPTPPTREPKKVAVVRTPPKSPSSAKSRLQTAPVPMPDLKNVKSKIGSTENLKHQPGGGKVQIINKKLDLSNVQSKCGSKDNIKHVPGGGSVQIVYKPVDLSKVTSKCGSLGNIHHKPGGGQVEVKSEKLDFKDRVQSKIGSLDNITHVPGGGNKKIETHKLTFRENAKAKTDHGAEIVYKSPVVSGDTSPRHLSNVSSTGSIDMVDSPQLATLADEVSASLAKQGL

EC50 [1] | CSF AUC0-last ([2]; 20 mg/kg) | CSF/plasma AUC ratio [2, 4] | AUC(0-t) ([2]; 20 mg/kg) | CSF AUC0-last ([2]; 10 mg/kg) | CSF/plasma AUC ratio ([2]; 10 mg/kg, AUC0-last(CSF)/AUC0-last(plasma)) | AUC(0-t) ([2]; 10 mg/kg) | DLS % Percentage of disaggregation (flTau) [3] | CSF/Plasma ratio [2, 4] | Structure (SMILES)
< 10 µM | 121.03 ng·h/mL | 0.007 | 17400 ng·h/mL | – | – | – | – | – | Fc1ccc2[nH]c3c(c2c1)CN(c1ccc2oc(N4CCOCC4)nc2c1)CC3 [Comparative Example 1]
< 10 µM | 56.70 ng·h/mL | 0.003 | 17800 ng·h/mL | – | – | – | – | – | Fc1ccc2c3c([nH]c2c1)CCN(c1ccc2oc(N4CCOCC4)nc2c1)C3 [Comparative Example 2]
< 10 µM | – | – | – | 19.705 ng·h/mL | 0.004 | 4590 ng·h/mL | – | – | Fc1cccc2[nH]c3c(c12)CN(c1ccc2oc(N4CCOCC4)nc2c1)CC3 [Comparative Example 3]
< 10 µM | 66.5 ng·h/mL | 0.005 | 14500 ng·h/mL | – | – | – | – | – | Fc1cccc2c3c([nH]c12)CCN(c1ccc2oc(N4CCOCC4)nc2c1)C3 [Comparative Example 4]
< 10 µM | 327.0 ng·h/mL | 0.014 | 23700 ng·h/mL | – | – | – | 25% | highest CSF/plasma ratio | c1ccc2c3c([nH]c2c1)CCN(c1ccc2oc(N4CCOCC4)nc2c1)C3 [Example 1]
< 10 µM | – | – | – | – | – | – | – | – | c1ccc2c3c([nH]c2c1)CCN(c1ccc2oc(N4CCOCC4)nc2n1)C3 [Example 5]
